From patent publication US5256788A, “Moranoline derivatives and their production and the use of moranoline and its derivatives as a stabilizing agent for enzymes” (Nippon Shinyaku Co. Ltd., priority 1989, dated 1993)

Target: T1, glucoamylase (Rhizopus arrhizus, UniProt P07683)
T1 construct: maltose substrate
Experiment: Stabilization of GA (aqueous solution) by moranoline, N-methylmoranoline
Assay type: biochemical, Rhizopus niveus
Procedure: As the enzyme, Rhizopus niveus-derived reagent glucoamylase manufactured by Seikagaku Kogyo Co., Ltd. was used.
After 5 mg of the enzyme was dissolved in 1 ml of 0.1M acetate buffer solution (pH 5.0), moranoline and N-methylmoranoline were dissolved in the solution in a concentration of 6000 μg/ml. The solution was charged in a test tube with a screw stopper followed by incubation at 50° C. Each enzyme solution was diluted with 0.1M acetate buffer solution (pH 5.0) to 100-fold and 100 μl of the dilution was taken. After 400 μl of 5% maltose solution (0.05M acetate buffer solution, pH 4.6) was added thereto, the mixture was reacted at 40° C. for 20 minutes. […] Thereafter, the system was ice cooled and absorbency was measured at 500 nm to determine the glucose amount. […] When the initial enzyme activity (amount of glucose produced) was made […], relative enzyme activity was determined. […]
After 5 mg of the enzyme was dissolved in 1 ml of 0.1M acetate buffer solution (pH 5.0), moranoline and N-methylmoranoline were dissolved in the solution in a concentration of 6000 μg/ml. […] Thereafter, the system was ice cooled and absorbancy was measured at 500 nm to determine the glucose amount. […] When the initial enzyme activity (amount of glucose produced) was made 100, relative enzyme activity was determined. […]

T1 sequence (P07683 26-604): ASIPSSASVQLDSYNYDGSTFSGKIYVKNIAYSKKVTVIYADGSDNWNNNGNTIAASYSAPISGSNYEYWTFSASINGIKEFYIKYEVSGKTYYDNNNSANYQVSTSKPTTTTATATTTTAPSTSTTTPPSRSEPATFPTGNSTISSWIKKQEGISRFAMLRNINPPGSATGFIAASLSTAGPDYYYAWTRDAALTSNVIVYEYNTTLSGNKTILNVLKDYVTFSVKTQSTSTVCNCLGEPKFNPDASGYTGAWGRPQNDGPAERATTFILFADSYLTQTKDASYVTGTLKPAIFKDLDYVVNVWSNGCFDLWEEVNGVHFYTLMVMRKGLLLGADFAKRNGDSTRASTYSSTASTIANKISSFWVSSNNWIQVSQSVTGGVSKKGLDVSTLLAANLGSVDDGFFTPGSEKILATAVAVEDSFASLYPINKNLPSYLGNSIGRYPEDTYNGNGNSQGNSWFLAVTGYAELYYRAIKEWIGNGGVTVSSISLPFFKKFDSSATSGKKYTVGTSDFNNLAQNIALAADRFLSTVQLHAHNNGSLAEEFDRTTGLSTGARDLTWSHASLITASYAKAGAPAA

## OC[C@H]1NC[C@H](O)[C@@H](O)[C@@H]1O [moranoline]
  inhibition of the enzyme activity of glucoamylase: inhibit the enzyme activity of glucoamylase
